Where two headings read alike, the source gives them in different places.
Assays:
IRAK4 = target: T1, IRAK4 (Homo sapiens, UniProt Q9NWZ3); assay: IRAK4 Inhibition Assay (kinase reaction, Caliper capillary electrophoresis); type: biochemical; conditions: 500 μM ATP, 11 concentrations
T1 construct: 1 nM IRAK4 (160-460); purchased SignalChem M24016
T1 sequence (Q9NWZ3 160-460): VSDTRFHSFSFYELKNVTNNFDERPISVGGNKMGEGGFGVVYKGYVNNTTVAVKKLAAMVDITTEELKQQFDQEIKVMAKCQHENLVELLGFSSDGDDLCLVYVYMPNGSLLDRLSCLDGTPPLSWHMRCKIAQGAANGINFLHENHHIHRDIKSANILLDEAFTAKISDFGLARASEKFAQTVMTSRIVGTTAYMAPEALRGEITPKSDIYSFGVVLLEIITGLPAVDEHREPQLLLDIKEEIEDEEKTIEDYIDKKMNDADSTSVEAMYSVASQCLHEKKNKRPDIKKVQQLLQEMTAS
Description: (§1) The reactions were incubated out for three hours and quenched with 1 mM EDTA solution. The reaction incubation time and enzyme concentration were optimized to obtain a maximum peptide substrate conversion of 20-30%. The reaction mixtures were analyzed by capillary electrophoresis on a Caliper LabChip EZ Reader to resolve phosphorylated and unphosphorylated peptide species and determine peptide substrate conversion. […] The compounds were dissolved in DMSO and evaluated at 11 concentrations to determine IC50 values.

HPK1 = target: T2, HPK1 (Homo sapiens, UniProt Q92918); assay: HPK1 Inhibition Assay (kinase reaction, Caliper capillary electrophoresis); type: biochemical; conditions: for IRAK4/HPK1 Ratio: ratio of the IRAK4 IC50 value to the HPK1 IC50 value
T2 construct: purchased SignalChem M23-11G
T2 sequence (Q92918 1-346 limits assumed): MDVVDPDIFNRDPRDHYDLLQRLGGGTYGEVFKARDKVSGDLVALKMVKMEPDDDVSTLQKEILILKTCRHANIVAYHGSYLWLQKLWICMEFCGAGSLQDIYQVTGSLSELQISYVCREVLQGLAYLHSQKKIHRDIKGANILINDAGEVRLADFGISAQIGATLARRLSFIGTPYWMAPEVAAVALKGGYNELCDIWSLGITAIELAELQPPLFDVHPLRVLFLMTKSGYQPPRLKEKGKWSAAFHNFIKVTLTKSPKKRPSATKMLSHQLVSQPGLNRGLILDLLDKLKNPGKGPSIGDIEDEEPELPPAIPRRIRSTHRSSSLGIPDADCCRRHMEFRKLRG
Description: as §1, with “to determine the IC50 values.” for “to determine IC50 values.”

[1] = 0.625 nM HPK1, 22 μM ATP, 11 concentrations, read-out: HPK1 IC50

| SMILES | IC50 (IRAK4) [µM] | IC50 (HPK1; [1]) [µM] | IRAK4/HPK1 Ratio (HPK1) | IC50 (HPK1) [µM] |
| --- | --- | --- | --- | --- |
| CC1(C)OC(=O)c2ccc(Nc3ncc(-c4nc(C5CC(F)(F)C5)no4)c(N[C@H](CO)c4ccccc4)n3)cc21 [Example 40, 5-({5-[3-(3,3-difluorocyclobutyl)-1,2,4-oxadiazol-5-yl]-4-{[(1S)-2-hydroxy-1-phenylethyl]amino}pyrimidin-2-yl}amino)-3,3-dimethyl-1,3-dihydro-2-benzofuran-1-one] | 0.25 to 1 | < 0.05 | C (C=>50) |  |
| CC1(C)OC(=O)c2ccc(Nc3ncc(C(=O)N[C@H]4C[C@@H]4c4ccccc4)c(N[C@H](CO)c4ccccc4)n3)cc21 [Example 17, 2-[(3,3-dimethyl-1-oxo-1,3-dihydro-2-benzofuran-5-yl)amino]-4-{[(1S)-2-hydroxy-1-phenylethyl]amino}-N-[(1S,2R)-2-phenylcyclopropyl]pyrimidine-5-carboxamide] | 0.25 to 1 | 0.05 to 0.25 | B (B=10 to 50) |  |
| CC1(C)OC(=O)c2ccc(Nc3ncc(C(=O)NCc4ccccc4)c(N[C@H](CO)c4ccccc4)n3)cc21 [Example 10, N-benzyl-2-[(3,3-dimethyl-1-oxo-1,3-dihydro-2-benzofuran-5-yl)amino]-4-{[(1S)-2-hydroxy-1-phenylethyl]amino}pyrimidine-5-carboxamide] | 0.25 to 1 | < 0.05 | C (C=>50) |  |
| CC1(C)OC(=O)c2ccc(Nc3ncc(-c4nnc(C5CCS(=O)(=O)CC5)o4)c(N[C@H](CO)c4ccccc4)n3)cc21 [Example 69, (S)-5-((5-(5-(1,1-dioxidotetrahydro-2H-thiopyran-4-yl)-1,3,4-oxadiazol-2-yl)-4-((2-hydroxy-1-phenylethyl)amino)pyrimidin-2-yl)amino)-3,3-dimethylisobenzofuran-1(3H)-one] | 0.05 to 0.25 | < 0.05 | B (B=10 to 50) |  |
| C#CCNC(=O)c1cnc(Nc2ccc3c(c2)C(C)(C)OC3=O)nc1N[C@H](CO)c1ccccc1 [Example 21, 2-[(3,3-dimethyl-1-oxo-1,3-dihydro-2-benzofuran-5-yl)amino]-4-{[(1S)-2-hydroxy-1-phenylethyl]amino}-N-(prop-2-yn-1-yl)pyrimidine-5-carboxamide] | 0.25 to 1 | < 0.05 | B (B=10 to 50) |  |
| CCOC(=O)c1cnc(Nc2ccc3c(c2)C(C)(C)OC3=O)nc1NCCC(C)(C)N [Example 76, Ethyl 4-[(3-amino-3-methylbutyl)amino]-2-[(3,3-dimethyl-1-oxo-1,3-dihydro-2-benzofuran-5-yl)amino]pyrimidine-5-carboxylate] | 0.25 to 1 | 0.05 to 0.25 | B (B=10 to 50) |  |
| CCCc1noc(-c2cnc(Nc3ccc4c(c3)C(C)(C)OC4=O)nc2N[C@H](CO)c2ccccc2)n1 [Example 35, 5-[(4-{[(1S)-2-hydroxy-1-phenylethyl]amino}-5-(3-propyl-1,2,4-oxadiazol-5-yl)pyrimidin-2-yl)amino]-3,3-dimethyl-1,_3-dihydro-2-benzofuran-1-one] | 0.25 to 1 | < 0.05 | C (C=>50) |  |
| CC1(C)OC(=O)c2ccc(Nc3ncc(C(=O)NNC(=O)C(C)(O)C(F)(F)F)c(N[C@H](CO)c4ccccc4)n3)cc21 (stereo partly drawn) [Example 64, 2-[(3,3-dimethyl-1-oxo-1,3-dihydro-2-benzofuran-5-yl)amino]-4-{[(1S)-2-hydroxy-1-phenylethyl]amino}-N′-(3,3,3-trifluoro-2-hydroxy-2-methylpropanoyl)pyrimidine-5-carbohydrazide] | 0.25 to 1 | 0.05 to 0.25 | B (B=10 to 50) |  |
| CC(=O)NC12CC(c3noc(-c4cnc(Nc5ccc6c(c5)C(C)(C)OC6=O)nc4N[C@H](CO)c4ccccc4)n3)(C1)C2 [Example 49, N-[3-(5-{2-[(3,3-dimethyl-1-oxo-1,3-dihydro-2-benzofuran-5-yl)amino]-4-{[(1S)-2-hydroxy-1-phenylethyl]amino}pyrimidin-5-yl}-1,2,4-oxadiazol-3-yl)bicyclo[1.1.1]penta-1-yl]acetamide] | 0.25 to 1 | < 0.05 | C (C=>50) |  |
| CC1(C)OC(=O)c2ccc(Nc3cc(N[C@H](CO)c4ccc(F)cc4)c(-c4nc(C56CCN(CC5)CC6)no4)cn3)nc21 [Example 82, 2-{[5-(3-{1-azabicyclo[2.2.2]octan-4-yl}-1,2,4-oxadiazol-5-yl)-4-{1[(1S)-1-(4-fluorophenyl)-2-hydroxyethyl]amino}pyridin-2-yl]amino}-7,7-dimethyl-5H,7H-furo [3,4-b]pyridin-5-one] | 0.05 to 0.25 |  | C (C=>50) | < 0.05 |
| CC1(C)OC(=O)c2ccc(Nc3cc(N[C@H](CO)c4ccccc4)c(-c4nc(C5CN6CCC5(F)CC6)no4)cn3)nc21 (stereo partly drawn) [Example 83, 2-{[5-(3-{4-fluoro-1-azabicyclo[2.2.2]octan-3-yl}-1,2,4-oxadiazol-5-yl)-4-{[(1S)-2-hydroxy-1-phenylethyl]amino}pyridin-2-yl]amino}-7,7-dimethyl-5H,7H-furo [3,4-b]pyridin-5-one] | 0.05 to 0.25 |  | C (C=>50) | < 0.05 |
| CC(C)(O)C(=O)NNC(=O)c1cnc(Nc2ccc3c(c2)C(C)(C)OC3=O)nc1N[C@H](CO)c1ccccc1 [Example 60, 2-[(3,3-dimethyl-1-oxo-1,3-dihydro-2-benzofuran-5-yl)amino]-4-{[(1S)-2-hydroxy-1-phenylethyl]amino}-N′-(2-hydroxy-2-methylpropanoyl)pyrimidine-5-carbohydrazide] | 0.25 to 1 | 0.05 to 0.25 | B (B=10 to 50) |  |
| O=C1OCc2cc(Nc3ncc(-c4ncccn4)c(N[C@H](CO)c4ccccc4)n3)ccc21 [Example 1, 5-[(4′-{[(1S)-2-hydroxy-1-phenylethyl]amino}-[2,5′-bipyrimidine]-2′-yl)amino]-1,3-dihydro-2-benzofuran-1-one] | 0.25 to 1 | < 0.05 | B (B=10 to 50) |  |
| CC1(C)OC(=O)c2ccc(Nc3ncc(-c4nnc(-c5cccnn5)o4)c(N[C@H](CO)c4ccccc4)n3)cc21 [Example 67, 5-[(4-{[(1S)-2-hydroxy-1-phenylethyl]amino}-5-[5-(pyridazin-3-yl)-1,3,4-oxadiazol-2-yl]pyrimidin-2-yl)amino]-3,3-dimethyl-1,3-dihydro-2-benzofuran-1-one] | 0.05 to 0.25 | < 0.05 | B (B=10 to 50) |  |
| CC(C)(O)c1ccccc1CNc1nc(Nc2ccc3c(c2)C(C)(C)OC3=O)ncc1-c1nc(C2CC2)no1 [Example 73, 5-{[5-(3-cyclopropyl-1,2,4-oxadiazol-5-yl)-4-({[2-(2-hydroxypropan-2-yl)phenyl]methyl}amino)pyrimidin-2-yl]amino}-3,3-dimethyl-1,3-dihydro-2-benzofuran-1-one] | 0.25 to 1 | 0.05 to 0.25 | B (B=10 to 50) |  |
| CC1(C)OC(=O)c2ccc(Nc3ncc(C(=O)NC[C@@]4(O)CN5CCC4CC5)c(N[C@H](CO)c4ccccc4)n3)cc21 [Example 24, 2-[(3,3-dimethyl-1-oxo-1,3-dihydro-2-benzofuran-5-yl)amino]-N-{[(3R)-3-hydroxy-1-azabicyclo[2.2.2]octan-3-yl]methyl}-4-{[(1S)-2-hydroxy-1-phenylethyl]amino}pyrimidine-5-carboxamide] | 0.25 to 1 |  | B (B=10 to 50) | < 0.05 |
| CC1(C)OC(=O)c2ccc(Nc3ncc(-c4nc(C5(CO)CC5)no4)c(N[C@H](CO)c4ccccc4)n3)cc21 [Example 38, 5-[(4-{[(1S)-2-hydroxy-1-phenylethyl]amino}-5-{3-[1-(hydroxymethyl)cyclopropyl]-1,2,4-oxadiazol-5-yl}pyrimidin-2-yl)amino]-3,3-dimethyl-1,3-dihydro-2-benzofuran-1-one] | 0.05 to 0.25 | < 0.05 | C (C=>50) |  |
| CC1(C)OC(=O)c2ccc(Nc3ncc(-c4nc(C5CC5)no4)c(Nc4ccc5[nH]ncc5c4)n3)cc21 [Example 75, 5-{[5-(3-cyclopropyl-1,2,4-oxadiazol-5-yl)-4-[(1H-indazol-5-yl)amino]pyrimidin-2-yl]amino}-3,3-dimethyl-1,3-dihydro-2-benzofuran-1-one] | 0.25 to 1 | 0.05 to 0.25 | B (B=10 to 50) |  |

Reference: patent US11166959B2, “Isofuranone compounds useful as HPK1 inhibitors” (BRISTOL-MYERS SQUIBB COMPANY, priority 2017, dated 2021)
